pEC50, pKi: −log10 of the molar value. Read-outs that look alike come from different tables or passages of the source.
How the values were obtained:
hMC4-R [1] = target: T1, hMC4-R (Homo sapiens (Human), UniProt P32245); assay: High and low density hMC4-R functional assay (cAMP, HEK293-T-REx-MC4-R cells); assay type: cell-based; conditions: for Emax: NDP-α-MSH = 100%, read-out: Intrinsic Activity (%)
Procedure: The cells were then dispensed into 96-well plates (BD 353916) in 198 μL (about 5×10^4) cells/well and incubated for 10 minutes at 37° C. The compound to be tested was diluted with DMSO to a final concentration of 1 mM. […] 120 μL of the 1 mM compound stock was pipetted in the second column on the plate. […] All assay samples were run in duplicate (i.e. each sample was in two low dox and two high dox plates, respectively). The plates were gently shaken and incubated for 15 minutes at 37° C.

hMC4-R [2] = target: T1, hMC4-R; assay: Competitive inhibition binding assay using [I125]-NDP-α-MSH, hMC4-R; conditions: membranes of HEK-293 cells expressing recombinant hMC4-R, read-out: MC4-R Ki
Procedure: 7.1 Competitive Inhibition Assay using [I^125]-NDP-α-MSH.
A competitive inhibition binding assay was performed for exemplified peptides according to the invention using membrane homogenates prepared from HEK-293 cells that express recombinant hMC4-R, hMC3-R, or hMC5-R, and from B-16 mouse melanoma cells (containing endogenous MC1-R). In some instances, HEK-293 cells that express recombinant hMC1-R were employed. Assays were performed in 96 well GF/B Millipore multiscreen filtration plates (MAFB NOB10) pre-coated with 0.5% bovine serum albumin (Fraction V). Membrane homogenates were incubated with 0.2 nM (for hMC4-R) 0.4 nM (for MC3-R and MC5-R) or 0.1 nM (for mouse B16 MC1-R or hMC1-R) [I^125]-NDP-α-MSH (Perkin Elmer) and increasing concentrations of test peptides of the present invention in buffer containing 25 mM HEPES buffer (pH 7.5) with 100 mM NaCl, 2 mM CaCl2, 2 mM MgCl2, 0.3 mM 1,10-phenanthroline, and 0.2% bovine serum albumin. After incubation for 60 minutes at 37° C., the assay mixture was filtered and the membranes washed three times with ice-cold buffer. Filters were dried and counted in a gamma counter for bound radioactivity. […] Maximal specific binding (100%) was defined as the difference in radioactivity (cpm) bound to cell membranes in the absence and presence of 1 μM NDP-α-MSH. […] Each assay was conducted in triplicate and the actual mean values are described, with results less than 0% reported as 0%. Ki values for test peptides of the present invention were determined using Graph-Pad Prism® curve-fitting software.

[3] = 0.1 ng/mL Doxycycline (low density hMC4-R system)
[4] = 10 ng/mL Doxycycline (high density hMC4-R system)

T1 sequence (P32245 whole entry): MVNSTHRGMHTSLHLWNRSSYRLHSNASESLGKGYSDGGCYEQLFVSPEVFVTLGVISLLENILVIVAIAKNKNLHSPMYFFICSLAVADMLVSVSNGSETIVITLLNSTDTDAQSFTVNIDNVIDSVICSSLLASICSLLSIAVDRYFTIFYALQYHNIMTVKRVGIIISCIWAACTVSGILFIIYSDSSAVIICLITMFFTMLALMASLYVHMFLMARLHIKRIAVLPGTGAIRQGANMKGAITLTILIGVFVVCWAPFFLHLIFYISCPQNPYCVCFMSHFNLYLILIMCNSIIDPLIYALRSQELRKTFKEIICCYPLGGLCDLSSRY

Row | pEC50 (hMC4-R [1]; [3]) | Emax (hMC4-R [1]; [3]) | pEC50 (hMC4-R [1]; [4]) | Emax (hMC4-R [1]; [4]) | pKi (hMC4-R [2]) | SMILES
1 | 9.85 | 83% | 10.07 | 97% | 9.30 | CC(=O)N[C@@H](CCCNC(=N)N)C(=O)N[C@H]1CCC(=O)NCCC[C@@H](C(N)=O)NC(=O)[C@H](Cc2c[nH]c3ccccc23)NC(=O)[C@H](CCCNC(=N)N)NC(=O)[C@@H](Cc2ccccc2C)NC(=O)[C@H](CCN)NC1=O [Example 18, Ac-Arg-cyclo(Glu-Dab-D-Phe(2-Me)-Arg-Trp-Orn)-NH2]
2 | 9.38 | 35% | 9.66 | 97% | 9.40 | CC(=O)N[C@@H](CCCNC(=N)N)C(=O)N[C@H]1CCC(=O)NCCC[C@@H](C(N)=O)NC(=O)[C@H](Cc2c[nH]c3ccccc23)NC(=O)[C@H](CCCNC(=N)N)NC(=O)[C@@H](Cc2cccc(C)c2)NC(=O)[C@H](CCN)NC1=O [Example 19, Ac-Arg-cyclo(Glu-Dab-D-Phe(3-Me)-Arg-Trp-Orn)-NH2]
3 |  | 0.5% | 9.12 | 53% | 10.22 | CC(=O)N[C@@H](CCCNC(=N)N)C(=O)N[C@H]1CCC(=O)NCCC[C@@H](C(N)=O)NC(=O)[C@H](Cc2c[nH]c3ccccc23)NC(=O)[C@H](CCCNC(=N)N)NC(=O)[C@@H](Cc2ccc(C(F)(F)F)cc2)NC(=O)[C@H](CCN)NC1=O [Example 20, Ac-Arg-cyclo(Glu-Dab-D-Phe(4-CF3)-Arg-Trp-Orn)-NH2]
4 |  | 8% | 9.30 | 97% | 10.07 | CC(=O)N[C@@H](CCCNC(=N)N)C(=O)N[C@H]1CCC(=O)NCCC[C@@H](C(N)=O)NC(=O)[C@H](Cc2c[nH]c3ccccc23)NC(=O)[C@H](CCCNC(=N)N)NC(=O)[C@@H](Cc2ccc(C)cc2C)NC(=O)[C@H](CCN)NC1=O [Example 21, Ac-Arg-cyclo(Glu-Dab-D-Phe(2,4-diMe)-Arg-Trp-Orn)-NH2]
5 | 8.52 | 78% | 9.70 | 93% | 7.96 | CC(=O)N[C@@H](CCCNC(=N)N)C(=O)N[C@H]1CCC(=O)NCCC[C@@H](C(N)=O)NC(=O)[C@H](Cc2c[nH]c3ccccc23)NC(=O)[C@H](CCCNC(=N)N)NC(=O)[C@@H](Cc2ccccc2[N+](=O)[O-])NC(=O)[C@H](CCN)NC1=O [Example 22, Ac-Arg-cyclo(Glu-Dab-D-Phe(2-NO2)-Arg-Trp-Orn)-NH2]
6 | 8.70 | 17% | 9.26 | 95% | 9.15 | CC(=O)N[C@@H](CCCNC(=N)N)C(=O)N[C@H]1CCC(=O)NCCC[C@@H](C(N)=O)NC(=O)[C@H](Cc2c[nH]c3ccccc23)NC(=O)[C@H](CCCNC(=N)N)NC(=O)[C@@H](Cc2cccc([N+](=O)[O-])c2)NC(=O)[C@H](CCN)NC1=O [Example 23, Ac-Arg-cyclo(Glu-Dab-D-Phe(3-NO2)-Arg-Trp-Orn)-NH2]
7 | 9.15 | 15% | 9.35 | 99% | 9.35 | CC(=O)N[C@@H](CCCNC(=N)N)C(=O)N[C@H]1CCC(=O)NCCC[C@@H](C(N)=O)NC(=O)[C@H](Cc2c[nH]c3ccccc23)NC(=O)[C@H](CCCNC(=N)N)NC(=O)[C@@H](Cc2ccc([N+](=O)[O-])cc2)NC(=O)[C@H](CCN)NC1=O [Example 24, Ac-Arg-cyclo(Glu-Dab-D-Phe(4-NO2)-Arg-Trp-Orn)-NH2]
8 | 7.12 | 23% | 8.70 | 94% | 7.46 | COc1ccc(C[C@H]2NC(=O)[C@H](CCN)NC(=O)[C@@H](NC(=O)[C@H](CCCNC(=N)N)NC(C)=O)CCC(=O)NCCC[C@@H](C(N)=O)NC(=O)[C@H](Cc3c[nH]c4ccccc34)NC(=O)[C@H](CCCNC(=N)N)NC2=O)cc1OC [Example 25, Ac-Arg-cyclo(Glu-Dab-D-Phe(3,4-diOMe)-Arg-Trp-Orn)-NH2]
9 | 9.90 | 74% | 9.92 | 90% | 9.52 | CC(=O)N[C@@H](CCCNC(=N)N)C(=O)N[C@H]1CCC(=O)NCCC[C@@H](C(N)=O)NC(=O)[C@H](Cc2c[nH]c3ccccc23)NC(=O)[C@H](CCCNC(=N)N)NC(=O)[C@@H](Cc2ccc(F)c(F)c2)NC(=O)[C@H](CCN)NC1=O [Example 26, Ac-Arg-cyclo(Glu-Dab-D-Phe(3,4-diF)-Arg-Trp-Orn)-NH2]
10 | 9.15 | 37% | 9.48 | 97% | 9.18 | CC(=O)N[C@@H](CCCNC(=N)N)C(=O)N[C@H]1CCC(=O)NCCC[C@@H](C(N)=O)NC(=O)[C@H](Cc2c[nH]c3ccccc23)NC(=O)[C@H](CCCNC(=N)N)NC(=O)[C@@H](Cc2cc(F)c(F)c(F)c2)NC(=O)[C@H](CCN)NC1=O [Example 27, Ac-Arg-cyclo(Glu-Dab-D-Phe(3,4,5-triF)-Arg-Trp-Orn)-NH2]
11 | 7.54 | 35% | 9.22 | 94% | 7.32 | CC(=O)N[C@@H](CCCNC(=N)N)C(=O)N[C@H]1CCC(=O)NCCC[C@@H](C(N)=O)NC(=O)[C@H](Cc2c[nH]c3ccccc23)NC(=O)[C@H](CCCNC(=N)N)NC(=O)[C@@H](Cc2ccc(N)cc2)NC(=O)[C@H](CCN)NC1=O [Example 28, Ac-Arg-cyclo(Glu-Dab-D-Phe(4-NH2)-Arg-Trp-Orn)-NH2]
12 | 8.52 | 14% | 9.10 | 100% | 9.30 | CC(=O)N[C@@H](CCCNC(=N)N)C(=O)N[C@H]1CCC(=O)NCCC[C@@H](C(N)=O)NC(=O)[C@H](Cc2c[nH]c3ccccc23)NC(=O)[C@H](CCCNC(=N)N)NC(=O)[C@@H](Cc2ccc(-c3ccccc3)cc2)NC(=O)[C@H](CCN)NC1=O [Example 29, Ac-Arg-cyclo(Glu-Dab-D-Phe(4-Ph)-Arg-Trp-Orn)-NH2]
13 |  | 2% | 7.60 | 9% | 8.40 | CC(=O)N[C@@H](CCCNC(=N)N)C(=O)N[C@H]1CCC(=O)NCCC[C@@H](C(N)=O)NC(=O)[C@H](Cc2c[nH]c3ccccc23)NC(=O)[C@H](CCCNC(=N)N)NC(=O)[C@@H](Cc2ccc(C(C)(C)C)cc2)NC(=O)[C@H](CCN)NC1=O [Example 30, Ac-Arg-cyclo(Glu-Dab-D-Phe(4-tBu)-Arg-Trp-Orn)-NH2]
14 |  | 6% | 9.00 | 84% | 8.00 | CC(=O)N[C@@H](CCCNC(=N)N)C(=O)N[C@H]1CCC(=O)NCCC[C@@H](C(N)=O)NC(=O)[C@H](Cc2c[nH]c3ccccc23)NC(=O)[C@H](CCCNC(=N)N)NC(=O)[C@@H](Cc2cccc(Cl)c2)NC(=O)[C@H](CO)NC1=O [Example 35, Ac-Arg-cyclo(Glu-Ser-D-Phe(3-Cl)-Arg-Trp-Orn)-NH2]
15 |  | 9% | 9.30 | 84% | 8.22 | CC(=O)N[C@@H](CCCNC(=N)N)C(=O)N[C@H]1CCC(=O)NCCC[C@@H](C(N)=O)NC(=O)[C@H](Cc2c[nH]c3ccccc23)NC(=O)[C@H](CCCNC(=N)N)NC(=O)[C@@H](Cc2ccc(C#N)cc2)NC(=O)[C@H](C(C)C)NC1=O [Example 42, Ac-Arg-cyclo(Glu-Val-D-Phe(4-CN)-Arg-Trp-Orn)-NH2]
16 | 9.68 | 94% | 10.07 | 94% | 9.00 | CC(=O)N[C@H](CCCNC(=N)N)C(=O)N[C@H]1CCCNC(=O)CC[C@@H](C(N)=O)NC(=O)[C@H](Cc2c[nH]c3ccccc23)NC(=O)[C@H](CCCNC(=N)N)NC(=O)[C@@H](Cc2ccccc2Cl)NC(=O)[C@H](Cc2c[nH]cn2)NC1=O [Example 50, Ac-D-Arg-cyclo(Orn-His-D-Phe(2-Cl)-Arg-Trp-Glu)-NH2]
